Values joined by “and” are separate entries in the source; they are usually repeats but may differ in a detail not shown here. Equal entries are not always repeated.
How the values were obtained:
[1] = tested on: female Albino Wistar rats; assay: Hot plate test (heat induced pain model); assay type: in vivo
rats = assay: Tail Flick test; assay type: in vivo

| Structure (SMILES) | hot plate test latency ([1]; 15 min after oral gavage, hot plate 52.5° C., group average of 7 rats, cut-off 20 seconds, doses per Table 2) | hot plate test latency ([1]; 30 min after oral gavage, hot plate 52.5° C., group average of 7 rats, cut-off 20 seconds, doses per Table 2) | hot plate test latency ([1]; 45 min after oral gavage, hot plate 52.5° C., group average of 7 rats, cut-off 20 seconds, doses per Table 2) | hot plate test latency ([1]; 60 min after oral gavage, hot plate 52.5° C., group average of 7 rats, cut-off 20 seconds, doses per Table 2) | analgesic effect in the hot plate test, in words ([1]; comparison between groups / versus placebo) | tail flick results (tail flicking reaction time) (rats; 1 hour after oral administration by gavage, same dosages as hot plate study, average of 3 measurements) | time of peak of activity in hot plate test ([1]; rat, in vivo) | hot plate test latency ([1]; rat, in vivo, po) | tail flick results (tail flicking reaction time) (rats; rat, in vivo, po) |
| --- | --- | --- | --- | --- | --- | --- | --- | --- | --- |
| CC(C(=O)O)c1ccc(-c2ccccc2)c(F)c1 (stereo not drawn) [FBP, Flurbiprofen] | 4.87 s | 5.65 s | 5.15 s | 4.96 s | lowest analgesic effect compared to all the other groups except the placebo group | 4.95 s |  |  |  |
| COc1cccc(C2(O)CCCCC2CN(C)C)c1 (stereo not drawn) [Tramadol] |  |  |  |  |  |  | 30 min | 5.49 s and 6.90 s and 6.03 s and 6.19 s | 5.81 s |

Reference: patent US20210393553A1, “PHARMACEUTICAL COMBINATIONS FOR THE TREATMENT OF PAIN” (IMUNEKS FARMA ILAC SANAYI VE TICARET A.S., priority 2018, published 2021)
